Results reported in patent publication US8633251B2, “Derivatives of aminoalkanols, method of obtaining of aminoalkanols and their use” (Uniwersytet Jagiellonski, priority 2008, dated 2014).
Where a name gives a salt, the structure may show the parent alone.

Tests used:
[1] = test system: maximal electroshock seizures; test: Maximum Electroshock Seizure (MES) test, mice; assay type: in vivo; details: for MES, No. of protected animals/No. of used animals: mice
Experimental: (§1) In order to define anticonvulsant activity, screening tests were performed, using animal models of seizures. […] Each substance (after dissolving in methylcellulose) was normally tested in doses 30, 100, and 300 mg/kg body weight (b.w.) (mice) or in 30 and 50 mg/kg b.w. (rats) in two possible routes of administration: intraperitoneal (i.p.) or oral (p.o.). Appropriate tests were performed 0.5 and 4 h after administration of the compound. […] (mice) the tests were also performed in doses 10 and 3 mg/kg b.w.
Maximum Electroshock Seizure (MES) test is an electric test, verifying activity towards generalized tonic-clonic seizures (grand mal epilepsy). […] Its procedure consists in administration to an animal a mentioned dose, and after 0.5 or 4 h attaching corneal electrodes (after anesthetic eye-drops: 0.5% tetracaine hydrochloride in 0.9% NaCl) and turning on electric current (60 Hz, 0.2 s, 50 mA (mice) or 150 mA (rats)). […] Normally, in the dose 30 mg/kg b.w. the test is done in 1 mouse after 0.5 or 4 h, in the dose 100 mg/kg b.w.—in 3 mice, and in the dose 300 mg/kg b.w.—in 1 mouse.

[2] = test system: neurotoxicity (rotarod); test: Neurotoxicity test (TOX), rotarod, mice; assay type: in vivo
Experimental: as §1
It is performed with use of rotarod test. The animal is placed on a plastic rod (1 inch in diameter), rotating 6 rpm. The rod is placed on a level discouraging the animal to jump off. […] Neurotoxicity is stated if the animal cannot stay on the rod for 1 min. in any of 3 trials. Normally the test is performed in dose 30 mg/kg b.w. in 4 mice (0.5 h) and in 2 mice (4 h), in the dose 100 mg/kg b.w. in 8 mice (0.5 h) and in 4 mice (4 h) and in the dose 300 mg/kg b.w. in 4 mice (0.5 h) and 2 mice (4 h).

[3] = dose 100 mg/kg b.w., time 0.5 h
[4] = dose 300 mg/kg b.w., time 0.5 h
[5] = mice, dose 30 mg/kg b.w., time 0.5 h
[6] = mice, dose 100 mg/kg b.w., time 0.5 h
[7] = mice, dose 300 mg/kg b.w., time 0.5 h
[8] = Mus musculus, 0.5 h, read-out: MES, No. of protected animals/No. of used animals
[9] = mice, dose 100 mg/kg b.w., 0.5 h
[10] = mice, dose 300 mg/kg b.w., 0.5 h

SMILES	MES, No. of protected animals/No. of used animals [1, 3]	TOX, No. of animals exhibiting motor impairment/no. of used animals [2, 7]	TOX, No. of animals exhibiting motor impairment/no. of used animals [2, 9]	TOX, No. of animals exhibiting motor impairment/no. of used animals ([2]; mice, dose 100 mg/kg b.w., 4 h)	TOX, No. of animals exhibiting motor impairment/no. of used animals [2, 10]	MES, No. of protected animals/No. of used animals ([1]; dose 300 mg/kg b.w., 0.5 h)	other results
CC[C@@H](CO)NCCOc1cc(C)cc(C)c1C [Compound 41, S-(+)-2N-[(2,3,5-trimethylphenoxy)ethyl]amino-1-butanol]	3/3	–	–	–	–	–	MES, No. of protected animals/No. of used animals ([1]; dose 30 mg/kg b.w., time 0.5 h): 1/1; TOX, No. of animals exhibiting motor impairment/no. of used animals ([2]; mouse, in vivo, 30 mg/kg): 3/4; TOX, No. of animals exhibiting motor impairment/no. of used animals ([2]; mouse, in vivo, 100 mg/kg): 7/8; TOX, No. of animals exhibiting motor impairment/no. of used animals ([2]; mouse, in vivo, 300 mg/kg): 4/4
Cc1cc(C)c(C)c(OCCNCC(O)c2ccccc2)c1.Cl (centres unmarked) [Compound 42, R,S-2N-[(2,3,5-trimethylphenoxy)ethyl]amino-1-phenylethanol hydrochloride]	3/3	4/4	–	–	–	–	MES, No. of protected animals/No. of used animals ([1]; dose 100 mg/kg b.w., time 4 h): 1/3; MES, No. of protected animals/No. of used animals [1, 4]: 1/1; TOX, No. of animals exhibiting motor impairment/no. of used animals [2, 5]: 3/4; TOX, No. of animals exhibiting motor impairment/no. of used animals ([2]; mice, dose 30 mg/kg b.w., time 4 h): 1/2; TOX, No. of animals exhibiting motor impairment/no. of used animals [2, 6]: 8/8; TOX, No. of animals exhibiting motor impairment/no. of used animals ([2]; mice, dose 100 mg/kg b.w., time 4 h): 4/4; TOX, No. of animals exhibiting motor impairment/no. of used animals ([2]; mice, dose 300 mg/kg b.w., time 4 h): 1/1
Cc1cc(C)c(OCCN[C@H](C)CO)c(C)c1 [Compound 43, R-(−)-2N-[(2.4.6-trimethylphenoxy)ethyl]amino-1-propanol]	3/3	4/4	–	–	–	–	TOX, No. of animals exhibiting motor impairment/no. of used animals [2, 5]: 3/4; TOX, No. of animals exhibiting motor impairment/no. of used animals [2, 6]: 8/8
Cc1cc(C)c(OCCNCC(O)c2ccccc2)c(C)c1 (centres unmarked) [Compound 45, R,S-2N-[(2,4,6-trimethylphenoxy)ethyl]amino-1-phenylethanol]	3/3	3/4	–	–	–	–	MES, No. of protected animals/No. of used animals [1, 4]: 1/1; MES, No. of protected animals/No. of used animals ([1]; dose 300 mg/kg b.w., time 4 h): 1/1
Cc1cccc(C)c1OCCCN[C@H](C)CO [Compound 52, R-(−)-2N-[(2,6-dimethylphenoxy)propyl]amino-1-propanol hydrochloride]	–	–	6/8	1/4	3/4	–	responders at 30 mg/kg [1, 8]: 100%; responders at 100 mg/kg [1, 8]: 66.7%; responders at 300 mg/kg ([1]; Mus musculus, 4 h, read-out: MES, No. of protected animals/No. of used animals): 100%; TOX, No. of animals exhibiting motor impairment/no. of used animals ([2]; mice, dose 10 mg/kg b.w., 0.5 h): 1/4
Cc1cccc(C)c1OCC(=O)NC(C)CO (centres unmarked) [Compound 60, R,S-2N-[(2,6-dimethylphenoxy)acetyl]amino-1-propanol]	–	–	2/8	2/4	4/4	1/1	–
Cc1cccc(C)c1OCC(=O)N[C@@H](C)CO [Compound 62, S-(−)-2N-[(2,6-dimethylphenoxy)acetyl]amino-1-propanol]	–	–	3/8	1/4	3/4	1/1	MES, No. of protected animals/No. of used animals ([1]; dose 300 mg/kg b.w., 4 h): 1/1; TOX, No. of animals exhibiting motor impairment/no. of used animals ([2]; mice, dose 30 mg/kg b.w., 0.5 h): 1/4; TOX, No. of animals exhibiting motor impairment/no. of used animals ([2]; mice, dose 300 mg/kg b.w., 4 h): 1/2
CCC(O)CNC(=O)COc1c(C)cccc1C (centres unmarked) [Compound 63, R,S-1N-[(2,6-dimethylphenoxy)acetyl]amino-2-butanol]	–	–	–	–	4/4	1/1	–
Cc1cccc(Cl)c1OCC(=O)NC(C)CO (centres unmarked) [Compound 69, R,S-2N-[(2-chlor-6-methylphenoxy)acetyl]amino-1-propanol]	–	–	1/8	–	1/4	1/1	–
Cc1cccc(Cl)c1OCC(=O)N[C@H](C)CO [Compound 70, R-(−)-2N-[(2-chlor-6-methylphenoxy)acetyl]amino-1-propanol]	–	–	–	–	3/4	1/1	–
